Reference: US10093630B2, “Pyrazole compounds and methods of making and using same” (ABIDE THERAPEUTICS, INC., priority 2014, dated 2018)

Key:
Experiment in all cases: In vitro competitive activity-based protein profiling (gel-based, FP-Rh or HT-01 probe)
Format in all cases: biochemical
[1] = target: T1, ABHD6 (Mus musculus, UniProt Q8R2Y0); details: for inhibition at 1 µM: 1 μM inhibitor, read-out: % Inhibition at 1 μM, C = ABHD6; for IC50: mouse brain membrane fraction or cell lysates, 30 min preincubation at 37° C., read-out: Mouse (IC50 value, nM) ABHD6
T1 construct: Proteomes (mouse brain membrane fraction or cell lysates); from tissue; host or cells: mouse brain membrane fraction (or cell lysates, not specified)
T1 sequence (Q8R2Y0 1-336): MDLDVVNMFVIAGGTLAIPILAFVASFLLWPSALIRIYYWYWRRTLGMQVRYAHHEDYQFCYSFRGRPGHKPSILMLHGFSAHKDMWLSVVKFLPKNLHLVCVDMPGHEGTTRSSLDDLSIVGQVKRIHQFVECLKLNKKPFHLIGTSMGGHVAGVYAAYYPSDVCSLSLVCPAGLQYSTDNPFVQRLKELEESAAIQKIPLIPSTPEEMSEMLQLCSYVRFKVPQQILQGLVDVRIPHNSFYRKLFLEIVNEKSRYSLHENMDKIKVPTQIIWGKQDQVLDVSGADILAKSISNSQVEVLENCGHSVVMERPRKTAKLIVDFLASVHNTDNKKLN
In short: (§1)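 Mouse brain membrane proteome or cell lysate (1.0 mg/mL protein) was preincubated with inhibitor at varying concentrations for 30 min at 37° C, then labelled with FP-Rh or HT-01 for 30 min at 37° C. After SDS-PAGE, residual hydrolase activity was quantified as in-gel fluorescence of each band.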

[2] = target: T2, FAAH (Mus musculus, UniProt O08914); details: for inhibition at 1 µM: 1 μM inhibitor, read-out: % Inhibition at 1 μM, B = FAAH; for IC50: mouse brain membrane fraction or cell lysates, 30 min preincubation at 37° C., read-out: Mouse (IC50 value, nM) FAAH
T2 construct: Proteomes (mouse brain membrane fraction or cell lysates); from tissue; host or cells: mouse brain membrane fraction (or cell lysates, not specified)
T2 sequence (O08914 1-579): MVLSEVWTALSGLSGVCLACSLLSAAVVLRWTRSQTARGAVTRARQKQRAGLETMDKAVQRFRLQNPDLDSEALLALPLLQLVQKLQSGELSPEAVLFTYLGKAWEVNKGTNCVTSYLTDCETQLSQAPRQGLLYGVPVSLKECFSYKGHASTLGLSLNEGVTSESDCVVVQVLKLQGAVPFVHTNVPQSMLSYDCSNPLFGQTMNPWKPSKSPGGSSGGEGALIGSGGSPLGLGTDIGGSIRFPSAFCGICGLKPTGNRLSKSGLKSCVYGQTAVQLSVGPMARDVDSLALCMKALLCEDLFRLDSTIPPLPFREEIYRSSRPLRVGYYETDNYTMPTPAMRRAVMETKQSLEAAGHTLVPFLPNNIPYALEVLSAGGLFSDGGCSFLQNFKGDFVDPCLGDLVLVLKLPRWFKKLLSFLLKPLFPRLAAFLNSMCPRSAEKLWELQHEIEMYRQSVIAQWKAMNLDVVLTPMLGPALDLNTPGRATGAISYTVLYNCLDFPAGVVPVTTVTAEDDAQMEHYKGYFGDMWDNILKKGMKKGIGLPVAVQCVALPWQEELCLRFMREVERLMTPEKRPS
In short: as §1

[3] = target: T3, MAGL (Mus musculus, UniProt O35678); details: for inhibition at 1 µM: 1 μM inhibitor; for IC50: mouse brain membrane fraction or cell lysates, 30 min preincubation at 37° C., read-out: Mouse (IC50 value, nM) MAGL
T3 construct: Proteomes (mouse brain membrane fraction or cell lysates); from tissue; host or cells: mouse brain membrane fraction (or cell lysates, not specified)
T3 sequence (O35678 1-303): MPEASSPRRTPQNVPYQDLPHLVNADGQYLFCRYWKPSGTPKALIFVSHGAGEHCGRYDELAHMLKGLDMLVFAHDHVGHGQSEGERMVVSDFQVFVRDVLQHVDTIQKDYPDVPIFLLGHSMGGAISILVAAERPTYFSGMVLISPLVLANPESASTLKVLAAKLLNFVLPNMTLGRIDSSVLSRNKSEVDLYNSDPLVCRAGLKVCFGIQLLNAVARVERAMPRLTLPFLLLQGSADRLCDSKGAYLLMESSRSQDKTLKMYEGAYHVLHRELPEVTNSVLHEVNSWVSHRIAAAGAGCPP
In short: as §1

[4] = target: T4, PLA2G7 (Mus musculus, UniProt Q60963); details: for inhibition at 1 µM: 1 μM inhibitor, read-out: % Inhibition at 1 μM, D = PLA2G7; for IC50: mouse brain membrane fraction or cell lysates, 30 min preincubation at 37° C.
T4 construct: Proteomes (mouse brain membrane fraction or cell lysates); from tissue; host or cells: mouse brain membrane fraction (or cell lysates, not specified)
T4 sequence (Q60963 22-440): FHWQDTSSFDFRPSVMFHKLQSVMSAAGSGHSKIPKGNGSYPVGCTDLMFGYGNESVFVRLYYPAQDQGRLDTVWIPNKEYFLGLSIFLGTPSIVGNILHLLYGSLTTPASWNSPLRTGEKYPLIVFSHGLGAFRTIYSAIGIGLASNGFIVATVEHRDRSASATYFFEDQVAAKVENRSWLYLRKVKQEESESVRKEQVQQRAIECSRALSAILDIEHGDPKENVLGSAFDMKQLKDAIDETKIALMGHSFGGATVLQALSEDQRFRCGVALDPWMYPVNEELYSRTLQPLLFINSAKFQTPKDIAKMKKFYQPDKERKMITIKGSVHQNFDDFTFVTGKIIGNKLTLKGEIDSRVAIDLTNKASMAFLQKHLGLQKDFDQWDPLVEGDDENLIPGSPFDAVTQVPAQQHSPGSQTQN
In short: as §1

Row | Compound | inhibition at 1 µM ([1]; gel-based competitive ABPP) [%] | inhibition at 10 µM ([1]; 10 μM inhibitor, gel-based competitive ABPP, read-out: % Inhibition at 10 μM, C = ABHD6) [%] | IC50 [1] [nM] | inhibition at 1 µM ([2]; gel-based competitive ABPP) [%] | inhibition at 10 µM ([2]; 10 μM inhibitor, gel-based competitive ABPP, read-out: % Inhibition at 10 μM, B = FAAH) [%] | IC50 [2] [nM] | inhibition at 1 µM ([3]; gel-based competitive ABPP) [%] | inhibition at 10 µM ([3]; 10 μM inhibitor, gel-based competitive ABPP) [%] | IC50 [3] [nM] | inhibition at 1 µM ([4]; gel-based competitive ABPP) [%] | inhibition at 10 µM ([4]; 10 μM inhibitor, gel-based competitive ABPP, read-out: % Inhibition at 10 μM, D = PLA2G7) [%] | IC50 [4] [nM]
1 | CCN(Cc1cccc(N2CCOCC2)c1)C(=O)n1cc(Cl)cn1 [Example 266, 4-Chloro-N-ethyl-N-(3-morpholinobenzyl)-1H-pyrazole-1-carboxamide] | < 25 | > 75 | > 1000 | > 75 | > 75 | 100 to 1000 | < 25 | > 75 | > 1000 | < 25 | < 25 | > 1000
2 | CCN(Cc1ccc(N2CCOCC2)cc1)C(=O)n1cc(Cl)cn1 [Example 267, 4-Chloro-N-ethyl-N-(4-morpholinobenzyl)-1H-pyrazole-1-carboxamide] | < 25 | – | – | 25 to 75 | – | – | 25 to 75 | – | – | < 25 | – | –
3 | O=C(N1CCN(Cc2cccc(Cl)c2)CC1)n1cc(C(F)(F)F)cn1 [Example 268, (4-(3-Chlorobenzyl)piperazin-1-yl)(4-(trifluoromethyl)-1H-pyrazol-1-yl)methanone] | > 75 | – | < 100 | > 75 | – | < 100 | > 75 | – | < 100 | > 75 | – | 100 to 1000
4 | O=C(N1CCN(Cc2cccc(F)c2)CC1)n1cc(C(F)(F)F)cn1 [Example 269, (4-(3-Fluorobenzyl)piperazin-1-yl)(4-(trifluoromethyl)-1H-pyrazol-1-yl)methanone] | > 75 | – | < 100 | > 75 | – | < 100 | > 75 | – | < 100 | > 75 | – | < 100
5 | Cc1cccc(CN2CCN(C(=O)n3cc(C(F)(F)F)cn3)CC2)c1 [Example 270, (4-(3-Methylbenzyl)piperazin-1-yl)(4-(trifluoromethyl)-1H-pyrazol-1-yl)methanone] | > 75 | – | – | > 75 | – | – | > 75 | – | – | > 75 | – | –
6 | COc1cccc(CN2CCN(C(=O)n3cc(C(F)(F)F)cn3)CC2)c1 [Example 271, (4-(3-Methoxybenzyl)piperazin-1-yl)(4-(trifluoromethyl)-1H-pyrazol-1-yl)methanone] | > 75 | – | < 100 | > 75 | – | < 100 | > 75 | – | < 100 | > 75 | – | < 100
7 | O=C(N1CCN(Cc2cccc(C(F)(F)F)c2)CC1)n1cc(C(F)(F)F)cn1 [Example 272, (4-(Trifluoromethyl)-1H-pyrazol-1-yl)(4-(3-(trifluoromethyl)benzyl)piperazin-1-yl)methanone] | > 75 | – | < 100 | > 75 | – | < 100 | > 75 | – | < 100 | > 75 | – | 100 to 1000
8 | O=C(N1CCN(Cc2cccc(N3CCCC3)c2)CC1)n1cc(C(F)(F)F)cn1 [Example 273, (4-(3-(Pyrrolidin-1-yl)benzyl)piperazin-1-yl)(4-(trifluoromethyl)-1H-pyrazol-1-yl)methanone] | > 75 | – | < 100 | > 75 | – | < 100 | > 75 | – | < 100 | > 75 | – | < 100
